Patent US20230159510A1, “NOVEL PRMT5 INHIBITORS” (AMGEN INC., priority 2020, published 2023)
Read-outs that look alike come from different tables or passages of the source.

Columns and labels:
HCT116 MTAP null cells = assay: HCT116 proliferation assay, MTAP null cells (CellTiter-Glo, 6 days); type: cell-based; conditions: read-out: Protif_ HCT116-MTAP null IC50
In short: (§1)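 Compound titrations (top dose 1 or 10 µM, 1:3 dilution, 8 or 9 concentrations) and a DMSO control were applied to cells cultured overnight beforehand in RPMI 1640 with 10% FBS at 37° C, 5% CO2; viability was scored from luminescence.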

HCT116 WT cells = assay: HCT116 proliferation assay, WT cells (CellTiter-Glo, 6 days); type: cell-based; conditions: read-out: Prolif_HCT116-WT IC50
In short: as §1

PRMT5/MEP50 = PRMT5/MEP50 (Homo sapiens, UniProt O14744); assay: MTase-Glo methyl transferase assay, Method B (FL-Histone H2A, 1 µM MTA, 1 h pre-incubation); type: biochemical; set-up: purchased Reaction Biology Corp RD-11-292; conditions: read-out: PRMT5 MTase Glo Ki (nM, Meth. B)
Experimental: Method B: The PRMT5 inhibitory activity of test compounds was determined using the MTase-Glo™ assay (Promega), which monitors the product (S-adenosyl homocysteine or SAH) of methyltransferase reactions. The PRMT5 MTase-Glo assay was conducted in a 384-well white ProxiPlate (PerkinElmer) in a total volume of 16 µL. The PRMT5 enzymatic reaction (in 8 µL) contained 4 nM PRMT5/MEP50 (Reaction Biology Corp, catalog no.: RD-11-292), 5 µM S-adenosyl methionine (SAM, Promega), 2.5 µM FL-Histone H2A (BPS Bioscience, catalog no.: 52021), 1 µM 5′-methylthioadenosine (MTA, Sigma) and ½ log serially diluted compounds in a reaction buffer of 50 mM Tris (pH 8.0), 50 mM NaCl, 0.01% Tween 20, 0.01% BSA, and 1 mM TCEP. Test compounds were pre-incubated with PRMT5/MEP50, SAM, and MTA for 1 hour before addition of FL-Histone H2A to initiate the PRMT5 reaction. The reaction was allowed to proceed for 20 hours at room temperature and was then terminated by addition of 1 µL of 9X MTase-Glo™ Reagent (Promega). After a 30-minute incubation at room temperature, 8 µL of MTase-Glo™ Detection Solution (Promega) was added and the plate was incubated at room temperature for an additional 30 minutes. The light signal corresponding to the amount of SAH produced by the PRMT5 reaction was subsequently measured using an Envision multimode reader (PerkinElmer). IC50 and KI values were obtained by analyzing dose-response curves using GraphPad Prism®.

Chain of PRMT5/MEP50 (O14744 2-637 limits assumed): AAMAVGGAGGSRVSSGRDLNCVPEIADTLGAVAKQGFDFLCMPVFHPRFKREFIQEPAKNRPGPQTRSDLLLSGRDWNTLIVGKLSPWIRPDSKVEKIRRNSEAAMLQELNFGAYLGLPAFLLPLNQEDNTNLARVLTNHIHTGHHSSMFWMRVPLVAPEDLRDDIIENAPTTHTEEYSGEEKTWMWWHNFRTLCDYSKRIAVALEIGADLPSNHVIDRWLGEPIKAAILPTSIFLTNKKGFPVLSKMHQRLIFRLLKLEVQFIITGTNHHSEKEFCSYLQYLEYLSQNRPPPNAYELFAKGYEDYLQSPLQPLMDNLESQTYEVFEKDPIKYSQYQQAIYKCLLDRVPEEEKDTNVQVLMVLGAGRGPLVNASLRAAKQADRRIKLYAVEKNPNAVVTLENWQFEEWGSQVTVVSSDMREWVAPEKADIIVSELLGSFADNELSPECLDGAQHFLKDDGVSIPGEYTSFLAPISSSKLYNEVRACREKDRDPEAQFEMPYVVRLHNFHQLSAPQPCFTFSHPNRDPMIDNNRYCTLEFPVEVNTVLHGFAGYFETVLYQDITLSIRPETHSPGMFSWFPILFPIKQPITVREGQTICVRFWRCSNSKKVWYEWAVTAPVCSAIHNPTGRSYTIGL
Chain of PRMT5/MEP50 (Q9BQA1 2-342 partner limits assumed): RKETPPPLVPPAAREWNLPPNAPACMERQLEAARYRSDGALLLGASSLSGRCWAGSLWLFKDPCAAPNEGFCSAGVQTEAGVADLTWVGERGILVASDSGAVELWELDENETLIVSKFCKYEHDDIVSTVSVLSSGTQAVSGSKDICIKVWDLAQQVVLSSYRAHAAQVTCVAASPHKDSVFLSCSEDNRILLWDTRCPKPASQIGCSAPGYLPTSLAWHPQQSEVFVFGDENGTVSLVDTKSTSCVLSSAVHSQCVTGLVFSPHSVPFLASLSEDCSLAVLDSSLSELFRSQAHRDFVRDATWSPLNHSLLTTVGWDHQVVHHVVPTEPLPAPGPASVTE

Row | Molecule | IC50 (HCT116 WT cells) | Ki (PRMT5/MEP50) | IC50 (HCT116 MTAP null cells; HCT116-MTAP null, 144 h) | IC50 (HCT116 WT cells; Homo sapiens, HCT-116, 144 h) | IC50 (HCT116 MTAP null cells)
1 | Cc1cc2cc(C(=O)N(Cc3ccc(C(F)(F)F)cn3)CC3CCC3)ccc2nc1N [Example 562, 2-amino-N-(cyclobutylmethyl)-3-methyl-N-[[5-(trifluoromethyl)-2-pyridyl]methyl]quinoline-6-carboxamide] | – | 3.76 nM | 455 nM | > 1000 nM | –
2 | Cc1cc2cc(C(=O)N(Cc3ccc(CO)c(F)c3)Cc3ccc(C(F)(F)F)cn3)ccc2nc1N [Example 566, 2-amino-N-[[3-fluoro-4-(hydroxymethyl)phenyl]methyl]-3-methyl-N-[[5-(trifluoromethyl)-2-pyridyl]methyl] quinoline-6-carboxamide] | – | 4.58 nM | 277 nM | > 10000 nM | –
3 | Cc1cc2cc(C(=O)N(Cc3ccc(C(F)(F)F)cn3)C3CCC4CCCC4C3)ccc2nc1N (stereo not drawn) [Example 669, N-(2,3,3a,4,5,6,7,7a-octahydro-1H-inden-5-yl)-2-amino-3-methyl-N-[[5-(trifluoromethyl)-2-pyridyl]methyl] quinoline-6-carboxamide] | – | 8.5 nM | 820 nM | – | –
4 | Cc1cc2cc(C(=O)N(Cc3ccc(C(F)(F)F)cn3)C3CCc4cn[nH]c4C3)ccc2nc1N (stereo not drawn) [Example 671, 2-amino-3-methyl-N-(4,5,6,7-tetrahydro-1 H-indazol-6-yl)-N-[[5-(trifluoromethyl)-2-pyridyl]methyl] quinoline-6-carboxamide] | – | 6.82 nM | 180 nM | – | –
5 | CCn1ncc2c1CCCC2N(Cc1ccc(C(F)(F)F)cn1)C(=O)c1ccc2nc(N)c(C)cc2c1 (stereo not drawn) [Example 673, 2-amino-N-(1-ethy1-4,5,6,7-tetrahydroindazol-4-yl)-3-methyl-N-[[5-(trifluoromethyl)-2-pyridyl]methyl] quinoline-6-carboxamide] | – | 5.32 nM | 95 nM | – | –
6 | Cc1cc2cc(C(=O)N(Cc3ccc(C(F)(F)F)cn3)CC3CCC(O)C3)ccc2nc1N (stereo not drawn) [Example 677, 2-amino-N-[(3-hydroxycyclopentyl)methyl]-3-methyl-N-[[5-(trifluoromethyl)-2-pyridyl]methyl] quinoline-6-carboxamide] | – | 9.37 nM | 950 nM | – | –
7 | Cc1cc2cc(C(=O)N(Cc3ccc(C(F)(F)F)cn3)CC3CCCC(O)C3)ccc2nc1N (stereo not drawn) [Example 678, 2-amino-N-[(3-hydroxycyclohexyl)methyl]-3-methyl-N-[[5-(trifluoromethyl)-2-pyridyl]methyl] quinoline-6-carboxamide] | – | 5.57 nM | 500 nM | – | –
8 | Cc1cc2cc(C(=O)N(Cc3ccc(C(F)(F)F)cc3)Cc3c(F)cncc3F)ccc2nc1N [Example 685, 2-amino-N-[(3,5-difluoro-4-pyridyl)methyl]-3-methyl-N-[[4-(trifluoromethyl)phenyl]methyl] quino line-6-carboxamide] | – | 1.22 nM | – | – | 51 nM
9 | Cc1cc2cc(C(=O)N(Cc3ccc(C(F)(F)F)cn3)Cc3ccnn3C)ccc2nc1N [Example 686, 2-amino-3-methyl-N-[(2-methylpyrazol-3-yl)methyl]-N-[[5-(trifluoromethyl)-2-pyridyl]methyl] quinoline-6-carboxamide] | – | 5.12 nM | 590 nM | – | –
10 | Cc1cc2cc(C(=O)N(Cc3ccc(O)cc3)Cc3ccnc4[nH]ccc34)ccc2nc1N [Example 688, 2-amino-N-[(4-hydroxyphenyl)methyl]-3-methyl-N-(1H-pyrrolo[2,3-b]pyridin-4-ylmethyl)quinoline-6-carboxamide] | – | 1.41 nM | 240 nM | – | –
11 | Cc1cc2cc(C(=O)N(Cc3ccc[nH]3)Cc3ccnc4[nH]ccc34)ccc2nc1N [Example 689, 2-amino-3-methyl-N-(1H-pyrrolo[2,3-b]pyridin-4-ylmethyl)-N-(1H-pyrrol-2-ylmethyl)quinoline-6-carboxamide] | – | 2.94 nM | 330 nM | – | –
12 | Cc1cc2cc(C(=O)N(Cc3ccc(C(F)(F)F)cn3)C(C)CC#N)ccc2nc1N (stereo not drawn) [Example 693, 2-amino-N-(2-cyano-1-methyl-ethyl)-3-methyl-N-[[5-(trifluoromethyl)-2-pyridyl]methyl] quinoline-6-carboxamide] | – | 6.14 nM | 97 nM | – | –
13 | Cc1cc2cc(C(=O)N(CCC3CC3)Cc3ccc(C(F)(F)F)cn3)ccc2nc1N [Example 695, 2-amino-N-(2-cyclopropylethyl)-3-methyl-N-[[5-(trifluoromethyl)-2-pyridyl]methyl] quinoline-6-carboxamide] | – | 6.3 nM | 760 nM | – | –
14 | Cc1cc2cc(C(=O)N(Cc3ccc(C(F)(F)F)cn3)C(C)CC3CC3)ccc2nc1N (stereo not drawn) [Example 696, 2-amino-N-(2-cyclopropyl-1-methylethyl)-3-methyl-N-[[5-(trifluoromethyl)-2-pyridyl]methyl] quinoline-6-carboxamide] | – | 2.19 nM | 200 nM | – | –

Continued by falling Ki (PRMT5/MEP50), values first:

Row | IC50 (HCT116 WT cells) | Ki (PRMT5/MEP50) | IC50 (HCT116 MTAP null cells; HCT116-MTAP null, 144 h) | IC50 (HCT116 WT cells; Homo sapiens, HCT-116, 144 h) | Molecule | IC50 (HCT116 MTAP null cells)
15 | – | 15.3 nM | 510 nM | – | Cc1cc2cc(C(=O)N(Cc3ccc(C(F)(F)F)cn3)C3Cc4ccccc4C3O)ccc2nc1N (stereo not drawn) [Example 674, 2-amino-N-(1-hydroxyindan-2-yl)-3-methyl-N-[[5-(trifluoromethyl)-2-pyridyl]methyl] quinoline-6-carboxamide] | –
16 | – | 5.15 nM | 860 nM | – | Cc1cc2cc(C(=O)N(Cc3ccc(C(F)(F)F)cn3)C3CCc4[nH]cnc4C3)ccc2nc1N (stereo not drawn) [Example 670, 2-amino-3-methyl-N-(4,5,6,7-tetrahydro-1H-benzimidazol-5-yl)-N-[[5-(trifluoromethyl)-2-pyridyl]methyl] quinoline-6-carboxamide] | –
17 | – | 4.87 nM | 240 nM | – | CCC(C1CCOCC1)N(Cc1ccc(C(F)(F)F)cn1)C(=O)c1ccc2nc(N)c(C)cc2c1 (stereo not drawn) [Example 681, 2-amino-3-methyl-N-(1-tetrahydropyran-4-ylpropyl)-N-[[5-(trifluoromethyl)-2-pyridyl]methyl] quinoline-6-carboxamide] | –
18 | – | 4.44 nM | 103 nM | > 1000 nM | Cc1cc2cc(C(=O)N(Cc3ccc(C(F)(F)F)cn3)Cc3c[nH]c4ccccc34)ccc2nc1N [Example 567, 2-amino-N-(1H-indol-3-ylmethyl)-3-methyl-N-[[5-(trifluoromethyl)-2-pyridyl]methyl] quinoline-6-carboxamide] | –
19 | – | 3.51 nM | 520 nM | – | Cc1cc2cc(C(=O)N(Cc3ccc(N)cn3)Cc3c[nH]c4ccccc34)ccc2nc1N [Example 691, 2-amino-N-[(5-amino-2-pyridyl)methyl]-N-(1H-indol-3-ylmethyl)-3-methyl-quinoline-6-carboxamide] | –
20 | 3490 nM | 2.77 nM | – | – | 2-amino-3-methyl-N-[(4-methylthiazol-5-yl)methyl] -N-[[5-(trifluoromethyl)-2-pyridyl]methyl] quinoline-6-carboxamide [Example 565] | 94 nM
21 | – | 1.68 nM | 94 nM | – | Cc1cc2cc(C(=O)N(Cc3ccccc3O)Cc3ccnc4[nH]ccc34)ccc2nc1N [Example 690, 2-amino-N-[(2-hydroxyphenyl)methyl]-3-methyl-N-(1H-pyrrolo[2,3-b]pyridin-4-ylmethyl)quinoline-6-carboxamide] | –
22 | – | 1.56 nM | 110 nM | – | Cc1cc2cc(C(=O)N(Cc3ccnc4[nH]ccc34)Cc3ccnn3C)ccc2nc1N [Example 687, 2-amino-3-methyl-N-[(2-methylpyrazol-3-yl)methy1] -N-(1 H-pyrrolo [2,3-b]pyridin-4-ylmethyl)quinoline-6-carboxamide] | –
